Data set [1] concerns Thrips tabaci (onion thrips). The data set is described as follows: Example B18: comparison with state of the art, Thrips tabaci, feeding/residual contact activity, preventive. The conditions noted are these: for Death rate (%) after 6 days: sunflower leaf discs, mixed population, preventive. The class given is in vivo.
The test system of data set [2] is Myzus persicae (green peach aphid). Put plainly: Example B16: comparison with state of the art, Myzus persicae, feeding/residual contact activity, preventive. The class given is in vivo. Particulars: for Death rate (%) after 6 days: sunflower leaf discs, mixed population, preventive.
For data set [3], the system named is Diabrotica balteata (corn root worm). The data set is described as follows: Example B17: comparison with state of the art, Diabrotica balteata, larvicide, growth regulation. It is filed as in vivo. Particulars: for Inhibition of growth (%) after 5 dsys: artificial diet MTP, L2 larvae. The method, then:
After drying, the MTP's are infested with larvae (L2)(6-10 per well). After an incubation period of 5 days, samples are checked for growth regulation.

For data set [4], the system named is Myzus persicae (green peach aphid). The data set is described as follows: Example B19: comparison with state of the art, Myzus persicae, systemic/feeding activity, curative. The conditions noted are these: for Death rate (%) after 6 days (systemic action): pea seedling roots in test solution, curative. It is filed as in vivo.
Data set [5] relates to Tetranychus urticae (two-spotted spider mite). Put plainly: Example B20: comparison with state of the art, Tetranychus urticae, feeding/residual contact activity, preventive. The conditions noted are these: for Death rate (%) after 8 days: bean leaf discs, mixed population, preventive. The class given is in vivo. The text has this:
Activity Against Tetranychus urticae (Two-Spotted Spider Mite)
(Mixed Population, Feeding/Residual Contact Activity, Preventive)
Bean leaf discs on agar in 24-well microtiter plates are sprayed with test solutions. […] 8 days later, discs are checked for egg mortality, larval mortality, and adult mortality.

For data set [6], the system named is African bean aphid (Aphis craccivora). The data set is described as follows: Example B21: insecticide seed treatment of sugarbeet seeds, reduction of aphids. The class given is in vivo. The conditions noted are these: infested after 14 days, counted 7 days after infestation. The method, then: Insecticide Seed Treatment Sugarbeet seeds are treated with test compounds at various rates (mg a.i./seed). The seeds are sown into pots filled with soil. After placing the seeds on the soil surface they are further covered with soil. Before and during the bioassays, the plants are grown under optimal greenhouse conditions. After 14 days, the plants are infested with African bean aphid (Aphis craccivora) by placing one infested pea seedling containing approximately 150 aphids of a population of mixed developmental stages onto each plant. Seven days after infestation, the number of aphids is counted per plant. Each treatment group is replicated 10 times. Each replicate contains 1 plant. In this test, compounds listed in Tables A, B, C, D, E and F above show good activity.

As for `CO[C@H]1CC[C@]2(CC1)NC(=O)C(c1c(C)cc(C)cc1C)=C2O` [Ia-32, reference compound], the “Death rate (%) after 6 days” value in data set [1] (12.5 ppm), in data set [1] (50 ppm) and in data set [1] (200 ppm) was 25% throughout.
Take `COC1CCC2(CC1)NC(=O)C(c1cc(-c3ccc(Cl)cc3)ccc1C)=C2O` (centres unmarked) [Compound I-1-a-16]: the “Death rate (%) after 6 days” value was 0% in data set [2] (12.5 ppm) and 50% in data set [2] (50 ppm). For the same molecule, the “Inhibition of growth (%) after 5 dsys” value in data set [3] (50 ppm) and in data set [3] (200 ppm) was 0% each time.
The term melting point denotes the temperature, or range, at which the solid turns liquid. For the molecule `CON1CCC2(CC1)NC(=O)C(c1cc(Br)c(F)cc1C)=C2O` [Compound C19, 3-(5-Bromo-4-fluoro-2-methyl-phenyl)-4-hydroxy-8-methoxy-1,8-diaza-spiro[4.5]dec-3-en-2-one], the melting point lay within 229 to 230 °C.
`CON1CCC2(CC1)NC(=O)C(c1c(C)cc(C)cc1C)=C2O` [Compound C2]: the “Death rate (%) after 6 days” value in data set [1] (12.5 ppm) is 90%; in data set [1] (50 ppm) it was 100%; in data set [1] (200 ppm), 100%. Further, the “insecticidal action compared with the compound from the state of the art” value in data set [1] (vs compound Ia-32 of EP596298, Table B18) was “substantially better insecticidal action”.
`CO[C@H]1CC[C@]2(CC1)NC(=O)C(c1cc(C)ccc1C)=C2OC(=O)C(C)(C)C` [Compound I-1-b-20, reference compound]: the “Death rate (%) after 6 days (systemic action)” value in data set [4] (200 ppm) is listed as 0%. Also, the “Death rate (%) after 8 days” value in data set [5] (12.5 ppm) is recorded as 0%; in data set [5] (50 ppm), 0%; in data set [5] (200 ppm) it was 50%.
Consider `CON1CCC2(CC1)NC(=O)C(c1cc(C)ccc1C)=C2O` [Compound C1, 3-(2,5-dimethyl-phenyl)-4-hydroxy-8-methoxy-1,8-diaza-spiro[4.5]dec-3-en-2-one], for which the “Efficacy, % (reduction of aphids compared to untreated control plants)” value is 65% in data set [6] (0.03 mg a.i./seed), 96% in data set [6] (0.1 mg a.i./seed), 99% in data set [6] (0.3 mg a.i./seed) and 99% in data set [6] (0.6 mg a.i./seed).
`C=CCOC(=O)OC1=C(c2cc(C)ccc2C)C(=O)NC12CCN(OC)CC2` [Compound A5]: the “Efficacy, % (reduction of aphids compared to untreated control plants)” value in data set [6] (0.03 mg a.i./seed) is listed as 37%; in data set [6] (0.1 mg a.i./seed) it was 97%; in data set [6] (0.3 mg a.i./seed) it was 99%; in data set [6] (0.6 mg a.i./seed), 100%.
For the molecule `CON1CCC2(CC1)NC(=O)C(c1cc(C)ccc1C)=C2OC(=O)C(C)(C)C` [Compound A9], the results for the “Death rate (%) after 6 days (systemic action)” value in data set [4] (50 ppm) and in data set [4] (200 ppm) were 50% and 80%, respectively. Besides, the “insecticidal action compared with the compound from the state of the art” value in data set [4] (vs compound I-1-b-20 of WO1998/05638, Table B19) was “substantially better insecticidal action”; in data set [5] (vs compound I-1-b-20 of WO1998/05638, Table B20) it was “substantially better insecticidal action”. In addition, the entries for the “Death rate (%) after 8 days” value in data set [5] (12.5 ppm), in data set [5] (50 ppm) and in data set [5] (200 ppm) were 50%, 80% and 80%, respectively. Moreover, the “insecticidal action compared with the compound of the state of the art at low application rates” value in data set [5] (low application rates (50 and 12.5 ppm), vs compound I-1-b-20 of WO1998/05638) is listed as “far superior”.
For `CON1CCC2(CC1)NC(=O)C(c1cc(-c3ccc(Cl)cc3)ccc1C)=C2O` [Compound C6], the “Death rate (%) after 6 days” value in data set [2] (12.5 ppm) was 25%; in data set [2] (50 ppm) it was 90%. Moreover, the “insecticidal action compared with the compound from the state of the art” value is listed as “substantially better insecticidal action” in data set [2] (vs compound 1-1-a-16 of WO1999/48869, Table B16) and “substantially better insecticidal action” in data set [3] (vs compound 1-1-a-16 of WO1999/48869, Table B17). For the same molecule, the “Inhibition of growth (%) after 5 dsys” value came out at 50% in data set [3] (50 ppm) and 75% in data set [3] (200 ppm).
